Assay [1] concerns fungi. Put plainly: Fungal plate count of preserved GMS cream (Example 6). The format is cell-based. As to the method:
Each cream sample in Table 5 below was tested by the procedure described in Example 1. A glyceryl monostearate (GMS) cream as described in Table 3 below was prepared as follows. The polyoxyethylene glyceryl monostearate, glyceryl monostearate, cetearyl alcohol, and myristyl propionate were mixed and heated to 60 EC in a first container. The glycerin and sterile deionized water were mixed and heated to 60 EC in a second container. The solution in the first container was poured into the second container. The second container was maintained at 60 EC for 10 minutes. The solution in the second container was allowed to cool. The pH of the solution was adjusted to pH 7 with sodium hydroxide to yield the GMS cream. The cream samples shown in Table 7 below were prepared by mixing the appropriate amounts of the preservatives and the GMS cream and heating the mixture to 50 EC for 10-15 minutes.

Assay [2] has as its system Staphylococcus aureus (ATCC #6538). Put plainly: Minimum Inhibitory Concentration (MIC), autodilutor, nutrient broth, 96 well plates (Example 8). The format is cell-based. The note with it: Staphylococcus aureus, ATCC6538; 72 hours at 32 degree Celsius, approximately 10^6 cfu/g, visual turbidity; read-out: MIC for S. Aureus. As to the method:
The Minimum Inhibitory Concentration (MIC) of the preservative mixtures was tested. The MIC is the lowest concentration of an ingredient that will inhibit the growth of an organism. This study was conducted using the Hamilton Micro Lab AT Plus Autodilutor Liquid handling System. The programs for the auto-dilutor were based on Lonza's Standard Application Method SAPM#412-01-1. The Hamilton Autodilutor was used to dilute the starting concentrations of the preservative combination by 50% using nutrient broth in 96 well micro titer plates and also to inoculate the microorganism in the test samples. This preservatives tested were Isocil™ (a blend of methyl isothiazolinone and methyl-chloro-isothiazolinone), Benzocil™ (benzisothiazolinone) and Lonzagard™ (benzethonium chloride), all of which are available from Lonza Inc. of Fair Lawn, N.J., in various concentrations and combinations with cinnamaldehyde. Controls were also included in each test plate. […] Results were determined by checking for growth in the test samples versus the control wells on each plate (visual determination of turbidity in the wells). […] Synergism values for the Isocil™/cinnamaldehyde and Benzocil™/cinnamaldehyde combinations were calculated from the MIC values reported in Table 11 by the method described in Kull, supra, referred to above, and are set forth in Tables 12 and 13, below.

For `O=CC=Cc1ccccc1` [Cinnamaldehyde, cinnamaldehyde], in assay [1] (0.10% in GMS cream), the “Fungal Plate Count Day 0” value is given as 1.0 × 10^5 cfu/g, the “Fungal Plate Count Day 7” value is less than 10 cfu/g and the “Fungal Plate Count Day 14” value is given as less than 10 cfu/g. Moreover, in assay [1] (0.25% in GMS cream), the “Fungal Plate Count Day 0” value is reported as 1.0 × 10^5 cfu/g, the “Fungal Plate Count Day 7” value is given as less than 10 cfu/g and the “Fungal Plate Count Day 14” value is less than 10 cfu/g. Also, the MIC in assay [2] was found to be 125 µg/mL.
